Test results reported in BindingDB's records for doi:10.1016/j.bmcl.2007.01.009 (Karo Bio, 2007).

Molecular target: T1, Thyroid hormone receptor alpha (Homo sapiens, UniProt P10827)
T1 sequence (P10827 whole entry): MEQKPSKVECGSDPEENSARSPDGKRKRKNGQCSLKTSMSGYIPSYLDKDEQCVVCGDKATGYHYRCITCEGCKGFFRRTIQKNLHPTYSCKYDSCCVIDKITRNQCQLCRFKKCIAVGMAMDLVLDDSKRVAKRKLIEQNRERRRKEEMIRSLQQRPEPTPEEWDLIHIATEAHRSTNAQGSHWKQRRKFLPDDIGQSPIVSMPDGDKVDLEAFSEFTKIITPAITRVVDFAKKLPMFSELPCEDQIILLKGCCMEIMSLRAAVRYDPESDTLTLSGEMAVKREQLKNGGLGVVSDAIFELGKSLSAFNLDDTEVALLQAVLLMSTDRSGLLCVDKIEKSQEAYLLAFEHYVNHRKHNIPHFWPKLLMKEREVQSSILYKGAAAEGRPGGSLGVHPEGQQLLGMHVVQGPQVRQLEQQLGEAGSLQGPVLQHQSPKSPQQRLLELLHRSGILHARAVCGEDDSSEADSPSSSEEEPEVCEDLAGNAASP
Assay: TRalpha-Binding Assay and Thyroid Response Element (TRAFalpha1) Reporter Assay.
Details: pH 7; 4 °C
Description: EC50 is the concentration of compound required to reach or inhibit (agonist or antagonist) 50% of T3-induced TRalpha-activation in CHOK1 cells stably transfected with hTRalpha using alkaline phosphatase reporter assay.

O=C(O)CCc1cc(Br)c(OCc2cccc(Br)c2)c(Br)c1 [3-{3,5-dibromo-4-[(3-bromophenyl)methoxy]phenyl}propanoic acid]
EC50: 380 nM
